Like-named read-outs stand apart in the source and are kept apart here.
Assays:
A549 cells = test: standard methylene blue proliferation assay; assay type: cell-based
Protocol: The KRAS mutant NSCLC cell line was used in a standard methylene blue proliferation assay.
A549 cells were incubated with increasing amount of either compound A or PD0325901 (NVP-LBW624) alone or in combination, for 72 h and proliferation assessed with a standard methylene blue assay. The G150 were determined and CI quantified with the CalcuSyn software.

BN472 tumors = test: BN472 tumor model; assay type: in vivo; conditions: rat, weak and not significant
Protocol: FIG. 2: Rat bearing BN472 tumors were treated with the indicated compound at the indicated dose and schedule, either alone or in combination. Evolution of tumor growth were followed by callipering throughout the course of the study. *, P<0.05 (Dunnett's).
FIG. 3: Rat bearing BN472 tumors were treated with the indicated compound at the indicated dose and schedule, either alone or in combination. Evolution of body weight were followed throughout the course of the study. *, P<0.05 (Dunnett's).
In the BN472 tumor model administration of compound A at a dose of 10 mg/kg (p.o., 1q24h) or the Raf inhibitor Raf265 (at a dose of 2.5 mg/kg, po, […]) produced a weak and not significant antitumor activity (expressed as T/C) of either 83 and 76. The combination of compound A (10 mg/kg) with RAF265, however, produced a strong and statistically significant antitumor activity with a T/C of 34% (FIG. 2).

[1] = system: Akt; p70S6K or ERK in A549 cells; test: Western-blotting of phosphorylated Akt, p70S6K and ERK; assay type: cell-based; conditions: incubated alone, 30 min, PD03251901 250 nM
Protocol: FIG. 1: A549 cells were incubated either with compound A, PD03251901 (250 nM) alone or in combination for 30 min. Cells were then harvested and estimation of phosphorylated levels of either Akt; p70S6K or ERK done by regular Western-blotting.

Compound | GI50 (A549 cells; A549 cells, 72 h, compound A and PD0325901 (NVP-LBW624) in combination, read-out: GI50 (in nM) in combination) [nM] | Combination Index (CI) (A549 cells; A549 cells, 72 h, compound A with PD0325901 (NVP-LBW624), CalcuSyn software) | GI50 (A549 cells; Homo sapiens, A549, 72 h, A549 cells (KRAS mutant NSCLC), 72 h, single agent, read-out: GI50 (in nM) alone) [nM] | GI50 (A549 cells; Homo sapiens, A549, 72 h, A549 cells, 72 h, compound A and PD0325901 (NVP-LBW624) in combination, read-out: GI50 (in nM) in combination) [nM] | times less BEZ235 required for a similar decrease in proliferation (A549 cells; in presence of PD0325901) [times] | antitumor activity (expressed as T/C) (BN472 tumors; compound A 10 mg/kg p.o. 1q24h alone) | block of respective downstream effectors (ERK and Akt) [1] | GI50 (A549 cells; Homo sapiens, A549, 72 h, read-out: GI50 (in nM) alone) [nM] | GI50 (A549 cells; Homo sapiens, A549, 72 h, read-out: GI50 (in nM) in combination) [nM] | antitumor activity (expressed as T/C) (BN472 tumors; Raf265 2.5 mg/kg po q24h alone)
Cn1c(=O)n(-c2ccc(C(C)(C)C#N)cc2)c2c3cc(-c4cnc5ccccc5c4)ccc3ncc21 [Compound A, 2-methyl-2-[4-(3-methyl-2-oxo-8-quinolin-3-yl-2,3-dihydro-imidazo[4,5-c]quinolin-1-yl)-phenyl]-propionitrile] | 4.46 | 0.718 | 9.41 | 3.2 | 3 | 83 | do block their respective downstream effectors |  |  | 
O=C(NOC[C@H](O)CO)c1ccc(F)c(F)c1Nc1ccc(I)cc1F [PD0325901, reference compound] |  |  |  |  |  |  | do block their respective downstream effectors | 36.8 | 11.5 | 
Cn1c(Nc2ccc(C(F)(F)F)cc2)nc2cc(Oc3ccnc(-c4ncc(C(F)(F)F)[nH]4)c3)ccc21 [RAF265, reference compound] |  |  |  |  |  |  |  |  |  | 76

From patent US9241939B2, “Combination of (a) a phosphoinositide 3-kinase inhibitor and (b) a modulator of RAS/RAF/MEK pathway” (Novartis AG, priority 2008, dated 2016)
